The values below are quoted from earlier work in patent US20220289705A1, “PROCESS FOR THE PREPARATION OF RIDINILAZOLE AND CRYSTALLINE FORMS THEREOF” (Summit (Oxford) Limited, priority 2019, published 2022).

SMILES strings stand for the structures.

For the data set, the system named is Clostridioides difficile. To be noted: Phase 2 clinical trial; CDI recurrence.

Consider `c1cc(-c2nc3cc(-c4ccc5[nH]c(-c6ccncc6)nc5c4)ccc3[nH]2)ccn1` [ridinilazole, 2,2′-di(pyridin-4-yl)-1H,1′H-5,5′-bibenzo[d]imidazole], for which the “rates of recurrent disease” value is recorded as 14.3%. On to `CN[C@H](CC(C)C)C(=O)N[C@H]1C(=O)N[C@@H](CC(N)=O)C(=O)N[C@H]2C(=O)N[C@H]3C(=O)N[C@H](C(=O)N[C@H](C(=O)O)c4cc(O)cc(O)c4-c4cc3ccc4O)[C@H](O)c3ccc(c(Cl)c3)Oc3cc2cc(c3O[C@@H]2O[C@H](CO)[C@@H](O)[C@H](O)[C@H]2O[C@H]2C[C@](C)(N)[C@H](O)[C@H](C)O2)Oc2ccc(cc2Cl)[C@H]1O` [vancomycin], for which the “rates of recurrent disease” value was 34.8%.
